Counter-ions that a name gives are not always drawn.
Test: Particle size distribution by laser diffraction (Sympatec Helos)
Format: physicochemical
Conditions: for particle size: product of the prior process (background statement), method not stated at that place
From the text: As used herein, “particle size distribution” means the cumulative volume size distribution of equivalent spherical diameters as determined by laser diffraction at 1 bar dispersive pressure in a Sympatec Helos equipment. “Median particle size”, correspondingly, means the median of said particle size distribution.
A wet filter cake obtained by precipitation of crude escitalopram oxalate by mixing of ethanolic solutions of escitalopram and oxalic acid, respectively, and containing approximately 35 kg escitalopram oxalate was suspended in 322 L ethanol. The material was dissolved by heating to reflux, and 150 L ethanol was removed by distillation. Cooling was applied, and the mixture was cooled from reflux to 15° C. with a cooling rate between 0.2 and 0.5° C./min in the temperature interval 80 to 40° C. During cooling, the mixture was seeded with escitalopram oxalate at 75, 65 and 60° C. (10 g each time). The crystallization mixture was kept at 15° C. for 10 hours before the crystalline escitalopram oxalate was isolated. Purified escitalopram oxalate (27.7 kg, […]) was obtained by filtration of the crystallization mixture, washing with ethanol and drying of the filter cake.

| Particle size distribution, 10% quantile (Quantile 10%, cumulative volume size distribution, Sympatec Helos, 1 bar dispersive pressure) [μm] | Particle size distribution, 50% quantile (median particle size) (Quantile 50%, cumulative volume size distribution, Sympatec Helos, 1 bar dispersive pressure) [μm] | Particle size distribution, 90% quantile (Quantile 90%, cumulative volume size distribution, Sympatec Helos, 1 bar dispersive pressure) [μm] | particle size | Structure (SMILES) |
| --- | --- | --- | --- | --- |
| 13 | 163 | 455 |  | CN(C)CCC[C@@]1(c2ccc(F)cc2)OCc2cc(C#N)ccc21.O=C(O)C(=O)O [Example 1, (S)-1-[3-(dimethylamino)propyl]-1-(4-fluorophenyl)-1,3-dihydro-5-isobenzofurancarbonitrile oxalate] |
|  |  |  | 2-20 μm | CN(C)CCCC1(c2ccc(F)cc2)OCc2cc(C#N)ccc21 (centres unmarked) [citalopram hydrobromide, reference compound] |
|  |  |  | 2-20 μm | CN(C)CCC[C@@]1(c2ccc(F)cc2)OCc2cc(C#N)ccc21.O=C(O)C(=O)O [escitalopram oxalate, (S)-1-[3-(dimethylamino)propyl]-1-(4-fluorophenyl)-1,3-dihydro-5-isobenzofurancarbonitrile oxalate, reference compound] |
